Reference: US20260240819A1, “KAT6 INHIBITOR METHODS AND COMBINATIONS FOR CANCER TREATMENT” (Pfizer Inc., priority 2020, published 2026)

Tests used:
[1] = tested on: ERα and Cyclin D1 in T47D cells; experiment: Western blot after KAT6 inhibitor dose titration; format: cell-based; settings: increasing concentrations, 14 days
Experimental: Cells were plated at 10,000 cells per well into 6-well culture dishes and allowed to attach overnight at 37° C., 5% CO2. The next day, either COMPOUND C or COMPOUND D was added to wells at increasing concentrations, in addition to DMSO as vehicle control. Cells were cultured for 14 days with medium and KAT6 inhibitor refreshed twice a week (every 3-4 days). At the end of drug treatment, one million cells were collected via trypsinization for protein lysates. Cells were lysed in 100 μL 1× LDS buffer diluted from 4× LDS buffer (ThermoFisher catalog #NP0007) with reducing agent (ThermoFisher catalog #NP0009). The lysates were subsequently sonicated and loaded onto a NuPAGE 4-12% Bis-Tris gel (ThermoFisher, catalog #NP0321BOX) followed by electrophoresis. Gels were then transferred onto a nitrocellulose membrane (iBlot2, ThermoFisher). Membranes were blocked and incubated overnight at 4° C. with following antibodies: anti-ERα (D8H8) Rabbit mAb (#8644, Cell Signaling) and anti-β-actin (8H10D10) mouse mAb (Cell Signaling, #3700S). […]

[2] = tested on: estradiol response genes in T47D cells; experiment: RNA-Seq gene set enrichment analysis; format: cell-based; settings: 20 nM, 6-day treatment, GSEA
Experimental: The following day, cells were treated with vehicle control (DMSO) or COMPOUND C at 20 nM concentration. Media and compounds were refreshed three days later for a total of 6-day treatment. At the end of the 6-day treatment, cells were harvested by trypsinization and lysed in Buffer RLT (Qiagen, Cat No./ID 79216)^+β-mercaptoethanol. RNA lysates were submitted for RNA sequencing (“RNA-Seq”) (WuXi NextCODE®).
RNA-Seq data analysis: Adapter sequences were trimmed off from the Illumina raw reads, provided by WuXi NextCODE®, using Trimmomatic (v0.36) for paired-end reads, and low-quality reads were filtered out. Reads remaining after the pre-processing step were mapped to the reference genome hg38 using STAR (v2.6.0c). Gene level expression was quantitated as expected counts and transcripts per million (TPM) using “rsem-calculate-expression” of RSEM (v1.3.0) with default parameters. Differential expression analysis of robustly expressed genes (max expression across samples >=10) was performed using DESeq2 (v1.18.1) package. Gene set enrichment analysis (GSEA, v3.0) was conducted using GseaPreranked option. Genes were ranked based on signedlog10pval. Gene set collections (c2.all.v6.1) from Molecular Signatures Database (MSigDB) were used in this analysis.

[3] = tested on: T47D cells; experiment: Proliferation colony formation assay (SRB stain); format: cell-based
Experimental: (§1) T47D, ZR-75-1, or MCF7 cells were seeded into 6-well tissue culture plates at 10% seeding confluence (100,000-150,000 cells per well). After allowing 18-24 hours for the cells to attach to the wells, growth media was aspirated and discarded and new growth media containing 0-20 μM of either COMPOUND A or COMPOUND B was added in 2-fold increments of descending concentration from 20 μM to the cells (proliferation assay). In parallel, seeded cultures with the same titration of the KAT6 inhibitors was added to the cells. 500 nM palbociclib was also added for each concentration of the KAT6 inhibitors (palbociclib recovery assay). The cultures were incubated 12-14 days and treated with these inhibitors/inhibitor combinations. Growth media containing the inhibitors was replaced on the cell cultures every 3-4 days (twice per week).
For the KAT6 inhibitor treated T47D cultures (proliferation assay), after 12 days the vehicle (DMSO) treated cultures were >90% confluent and the cell cultures were SRB stained as described in Example 3. The stained 6-well plates were scanned using an Epson Perfection V600 Photo Scanner and Epson Scan version 3.9.2.0 software. To quantitate SRB staining in each 6-well culture, the cultures were destained with 2 mL 10 mM Tris pH 7.5 per well and the absorbance at 565 nm (O.D. 565) of the released stain was measured using a SpectraMax Plus plate reader and SoftMaxPro 5.4.3 software. Inhibition of T47D cell proliferation by both COMPOUND A and COMPOUND B were equivalent with 50% proliferation inhibition observed with 10 μM of the KAT6 inhibitors (FIGS. 8A and 8C).
Cells were plated at low density into 6-well culture dishes and allowed to attach overnight at 37° C., 5% CO2. The next day, in parallel to the proliferation set, palbociclib was added at a final concentration of […] to another set of plates, which served as the set for palbociclib recovery. To both proliferation and palbociclib recovery plates, DMSO or KAT6 inhibitor was added into each well at increasing doses. Medium and KAT6 inhibitor were refreshed twice a week. Cells were cultured for about two weeks of drug treatment until the DMSO-treated wells reached confluency. At the end of treatment, cells were washed once with phosphate-buffered saline and were fixed and stained with SRB for visualization followed by quantification. […] Wells were fixed and stained with SRB for visualization followed by quantification. To quantify the stain, stained cells were dissolved in 2 mL of 10 mM Tris-HCl, pH 7.5 and shaken for 10 min on a shaker. Samples were then diluted with 10 mM Tris-HCl, pH 7.5, transferred to a 96-well microtiter plate in a volume of 100 μL and read on SpetraMax at 565 nm.

[4] = tested on: ZR-75-1 cells; experiment: Proliferation colony formation assay (SRB stain); format: cell-based
Experimental: as §1
For the ZR-75-1 and MCF7 experiments, only COMPOUND A was tested. For the single agent treated ZR-75-1 cultures the vehicle treated cultures were >90% confluent after 12 days of treatment. These cultures were SRB stained, scanned, and destained/measured as described above. […] After 22 days of recovery, the ZR-75-1 cultures that had been treated with single agent 500 nM palbociclib were >90% confluent and these palbociclib recovery assay cultures were SRB stained, scanned, and destained/measured as described above.
Cells were plated at low density into 6-well culture dishes and allowed to attach overnight at 37° C., 5% CO2. […] At the end of treatment, cells were washed once with phosphate-buffered saline and were fixed and stained with SRB for visualization followed by quantification. […] Wells were fixed and stained with SRB for visualization followed by quantification. To quantify the stain, stained cells were dissolved in 2 mL of 10 mM Tris-HCl, pH 7.5 and shaken for 10 min on a shaker. Samples were then diluted with 10 mM Tris-HCl, pH 7.5, transferred to a 96-well microtiter plate in a volume of 100 μL and read on SpetraMax at 565 nm.

[5] = Bodyweight and health monitoring, PDX ST941 study; format: in vivo, female athymic nude mice; settings: relative to day 0
Experimental: (§2) Combination studies with palbociclib, fulvestrant and the KAT6 inhibitor, Compound E (KAT6i), were performed in two ER+ breast cancer PDX models: ST340 and ST941. ST340 was wildtype for ESR1. […] Both studies were conducted by XenoSTART (San Antonio, Texas), where 6-12 week-old female athymic nude mice (JAX, stock #007850) were subcutaneously implanted with ~70 mg tumor fragments. Animals were supplemented with exogenous estradiol ad libitum via drinking water throughout the duration of the studies. Tumor measurements and animal weights were captured twice per week, and animals were stratified and enrolled into the study when the mean tumor volume (TV, formula: width^2×length×0.5) reached 150-300 mm^3.
(§3) Each study contained eight treatment groups of n=10 animals per group. The groups were as follows: 1) Vehicle (5% DMSO/40% PEG300/55% 1×PBS), 2) Compound E, 3) palbociclib, 4) fulvestrant, 5) palbociclib+fulvestrant, 6) Compound E +fulvestrant, 7) Compound E+palbociclib, and 8) Compound E+palbociclib+fulvestrant. Animals remained on study and were continued on treatments until the mean tumor volume of each group reached ~1500 mm^3. At that point, the final dose was administered, animals were sacrificed, and terminal samples were collected. Blood microsamples were collected from each group for pharmacokinetics (PK) analysis at 0, 3, and 7 hrs (n=3/timepoint) on day 14 of dosing and again on the terminal day of dosing.
(§4) Analysis of covariance (ANCOVA) was used to determine statistical significance when comparing percent TGI between groups. Changes in bodyweights were calculated in relation to starting bodyweights at study initiation (day 0 of treatment).

[6] = Bodyweight and health monitoring, PDX ST340 study; format: in vivo, female athymic nude mice; settings: relative to day 0
Experimental: as §2, §3, §4

[7] = tested on: MCF7 cells; experiment: Palbociclib growth arrest and recovery, cell counts; format: cell-based; settings: MCF7, 500 nM palbociclib
Experimental: T47D and MCF7 were confirmed as ER+ breast cancer cell lines using short tandem repeat (“STR”) testing (ATCC STR profiling service). […] After 6 and 14 days of palbociclib treatment, the cells in each well were suspended by trypsinization and cell densities were measured by cell counter. For the additional MCF7 cultures that were treated, in parallel, for either 6 or 14 days with 500 nM palbociclib, the palbociclib was washed off the cells and they were allowed 7-8 days to recover. After this recovery period, the cells were suspended by trypsinization and the cell densities of each suspension were measured. Similar to the T47D cells, palbociclib treatment stably arrested MCF7 cells for up to 14 days of treatment (FIG. 1B). However, after removing palbociclib from the MCF7 cultures treated for either 6 or 14 days, the cells readily re-entered the cell cycle and proliferated.

[8] = tested on: T47D cells; experiment: as above; format: cell-based; settings: 500 nM palbociclib
Experimental: T47D and MCF7 were confirmed as ER+ breast cancer cell lines using short tandem repeat (“STR”) testing (ATCC STR profiling service). […] After allowing 18-24 hours for the cells to attach to the plates, 500 nM palbociclib was added to each culture. Growth media and palbociclib was refreshed twice per week (every 3-4 days). […] For T47D cultures, the cells were suspended by trypsinization from triplicate cultures on days 1, 14, and 24 of palbociclib treatment and the cell density of each suspension was measured using a Vi-Cell XR cell counter. In a separate experiment, three additional T47D cultures were treated for 14 days with 500 nM palbociclib, then the palbociclib was washed off the cells and the cells were allowed to recover for 10 days. After 10 days of recovery, the cells were suspended by trypsinization and the cell density of each suspension was measured by cell counter.

[9] = tested on: ERα protein in MCF7 cells; experiment: Western blot after palbociclib treatment; format: cell-based; settings: MCF7, 500 nM palbociclib, 8 days
Experimental: (§5) Cells were seeded into 6-well culture plates and allowed to attach overnight at 37° C., 5% CO2. […] Medium was refreshed every 3 days. At 3, 6 and 8 days of treatment, cells were harvested for protein and RNA lysates.

[10] = tested on: ERα protein in T47D cells; experiment: Western blot after palbociclib treatment; format: cell-based; settings: 500 nM palbociclib, 8 days
Experimental: as §5

[11] = tested on: CAMA1 cells; experiment: Profiling of the response of CAMA1 to palbociclib; format: cell-based
[12] = tested on: ER+ breast cancer PDX model ST340; experiment: PDX tumor growth inhibition study; format: in vivo, female athymic nude mice; settings: doses per Table 7; for % TGI Delta: PDX ST340, day 21, compared to Vehicle
Experimental: as §2, §3, §4

COc1cccc(OC)c1S(=O)(=O)Nc1noc2cc(Cn3cccn3)cc(OC)c12 [COMPOUND C, 2,6-dimethoxy-N-{4-methoxy-6-[(1H-pyrazol-1-yl)methyl]-1,2-benzoxazol-3-yl}benzene-1-sulfonamide]
ERα and Cyclin D1 protein [1]: dose-dependent depletion | NES (Normalized Enrichment Score), estradiol-induced genes [2]: −9,92 | NES (Normalized Enrichment Score), estradiol-repressed genes [2]: 6.27 | Kind of effect on cell growth ([3]; dose titration): cytostatic | Maximal reduction of growth ([3]; single agent, about two weeks): about 40% | IC50 ([4]; Homo sapiens, ZR-75-1, ZR75-1, single agent, about two weeks, read-out: Concentration giving 50% growth inhibition): ~3.9 nM | Kind of effect on cell growth ([4]; ZR75-1, dose titration): strong dose-dependent cytotoxic effect

CC(=O)c1c(C)c2cnc(Nc3ccc(N4CCNCC4)cn3)nc2n(C2CCCC2)c1=O [Palbociclib, 6-acetyl-8-cyclopentyl-5-methyl-2-(5-piperazin-1-yl-pyridin-2-ylamino)-8H-pyrido[2,3-d]pyrimidin-7-one]
Day 17 mean change in bodyweight [5]: −1% | Maximum mean bodyweight loss [5]: −3% | Day 21 mean change in bodyweight [6]: −2% | Maximum mean bodyweight loss [6]: −3% | Effect on cell cycle [7]: complete cell cycle arrest | Reversibility of growth arrest ([7]; after withdrawal): reversible upon palbociclib withdrawal | Effect on cell cycle [8]: complete cell cycle arrest | Reversibility of growth arrest ([8]; after withdrawal): reversible upon palbociclib withdrawal | Reduction of ERα protein level [9]: about 50% | Reduction of ERα protein level [10]: about 50% | Effect of single agent treatment on proliferation [11]: irreversible proliferation arrest | % TGI Delta [12]: 43.7% | % TGI Delta ([12]; listed as palbociclib): ~ 40% | Mean ± SEM (day 21) ([12]; PDX ST340, tumor volume (mm^3)): 1051.4 ± 134
